Test results taken from publication PMC11371747, “The role of l-leucovorin uptake and metabolism in the modulation of 5-fluorouracil efficacy and antifolate toxicity” (Frontiers in Pharmacology, 2024).
pIC50: −log10 of the molar value.

Key:
human PCFT = target: T1, human PCFT (Homo sapiens, UniProt Q96NT5); experiment: Inhibition of PCFT-mediated [3H]-l-LV influx in CHO/C5-PCFT cells; format: cell-based, Chinese hamster (CHO cells); conditions: CHO/C5/PCFT cells, 2.5 µM [3H]-l-LV, pH 5.5, 3 min; read-out: Concentration for 50% inhibition of PCFT-mediated [3H]-l-LV influx
T1 construct: expressed in transfected cells; host or cells: CHO/C5 (RFC-deficient Chinese hamster ovary cells, no PCFT)
T1 sequence (Q96NT5 1-459): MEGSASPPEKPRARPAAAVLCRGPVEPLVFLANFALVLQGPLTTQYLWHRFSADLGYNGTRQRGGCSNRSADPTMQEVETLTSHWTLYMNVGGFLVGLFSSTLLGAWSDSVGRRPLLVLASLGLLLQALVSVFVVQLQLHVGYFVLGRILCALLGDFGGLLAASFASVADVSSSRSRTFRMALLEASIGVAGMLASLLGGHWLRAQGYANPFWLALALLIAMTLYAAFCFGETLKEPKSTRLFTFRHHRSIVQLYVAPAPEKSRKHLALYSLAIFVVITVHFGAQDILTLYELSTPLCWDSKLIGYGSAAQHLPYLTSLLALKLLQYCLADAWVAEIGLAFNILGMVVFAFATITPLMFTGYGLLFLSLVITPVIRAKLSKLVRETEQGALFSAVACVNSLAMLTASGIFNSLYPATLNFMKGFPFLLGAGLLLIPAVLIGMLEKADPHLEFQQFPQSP
Description: (§1) In order to determine whether the LV isomers were substrates for either folate receptor α (FRα), RFC and/or PCFT, we used model systems with established overexpression of these receptors or transporters ([Westerhof et al., 1995a]; [Westerhof et al., 1995b]; [Lasry et al., 2008]; [Van der Heijden et al., 2009]).
The competitive inhibition by 2.5 μM [^3H]-l-LV influx of PCFT was measured essentially as described for the RFC assay, except that the incubation time was 3 min, at pH 5.5 (the optimal pH for PCFT) and pH 7.4 with increasing amounts of unlabelled LV stereoisomers/antifolate drug. For PCFT too, relative affinities were expressed as the concentration of unlabelled drug necessary to inhibit 50% of [^3H]-l-LV influx.

[1] = tested on: unselected cell lines with a different pathology; set-up: method as in Van der Wilt and Peters, 1994; conditions: large panel of unselected cell lines with a different pathology; ref Van der Wilt and Peters, 1994; cited from earlier work
folate receptor α (FRα) = target: T2, folate receptor α (FRα) (Homo sapiens, UniProt P15328); experiment: Intact cell competitive binding assay, displacement of [3H]-folic acid from FRα in KB cells
T2 construct: endogenous in cells; host or cells: KB cells (FRα++)
T2 sequence (P15328 25-257): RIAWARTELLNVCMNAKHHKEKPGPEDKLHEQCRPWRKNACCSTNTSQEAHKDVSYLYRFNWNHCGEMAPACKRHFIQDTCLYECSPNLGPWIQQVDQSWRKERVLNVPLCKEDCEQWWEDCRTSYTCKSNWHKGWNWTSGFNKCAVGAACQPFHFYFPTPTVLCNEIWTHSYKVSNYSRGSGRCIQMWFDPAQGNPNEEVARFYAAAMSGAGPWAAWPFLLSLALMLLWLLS
Description: as §1
For FRα we used KB cells ([Westerhof et al., 1995b]). An intact cell binding assay for competitive binding was performed as described previously ([Westerhof et al., 1995a]). Briefly, cells were washed with Hanks balanced salt solution and 6 mM glucose (HBSS, pH 7.4), suspended in 1 mL of this solution (1*10^6 for KB cells) and incubated at 4°C for 15 min with 100 pmol [^3H]-folic acid [(^3H)-FA], in the presence and absence of unlabelled folic acid or LV stereoisomers. Cells were collected by centrifugation and analysed for radioactivity. Relative affinities for FRα were defined as the inverse ratio of compound to displace 50% of radioactive folic acid from FRα. The relative affinity of folic acid was set at 1.

[2] = target: T3, reduced folate carrier (RFC/SLC19A1) (Homo sapiens, UniProt P41440); experiment: Inhibition of RFC-mediated [3H]-l-LV influx in CEM-7A cells; format: cell-based; conditions: 5 µM [3H]-l-LV, 2 min, 37°C, read-out: Concentration for 50% inhibition of [3H]-l-LV influx (RFC)
T3 construct: CEM-7A cells, which display 30-fold RFC overexpression relative to wild-type CCRF-CEM cells; endogenous in cells; host or cells: CEM-7A (CCRF-CEM variant, RFC+++ 30-fold)
T3 sequence (P41440 1-591): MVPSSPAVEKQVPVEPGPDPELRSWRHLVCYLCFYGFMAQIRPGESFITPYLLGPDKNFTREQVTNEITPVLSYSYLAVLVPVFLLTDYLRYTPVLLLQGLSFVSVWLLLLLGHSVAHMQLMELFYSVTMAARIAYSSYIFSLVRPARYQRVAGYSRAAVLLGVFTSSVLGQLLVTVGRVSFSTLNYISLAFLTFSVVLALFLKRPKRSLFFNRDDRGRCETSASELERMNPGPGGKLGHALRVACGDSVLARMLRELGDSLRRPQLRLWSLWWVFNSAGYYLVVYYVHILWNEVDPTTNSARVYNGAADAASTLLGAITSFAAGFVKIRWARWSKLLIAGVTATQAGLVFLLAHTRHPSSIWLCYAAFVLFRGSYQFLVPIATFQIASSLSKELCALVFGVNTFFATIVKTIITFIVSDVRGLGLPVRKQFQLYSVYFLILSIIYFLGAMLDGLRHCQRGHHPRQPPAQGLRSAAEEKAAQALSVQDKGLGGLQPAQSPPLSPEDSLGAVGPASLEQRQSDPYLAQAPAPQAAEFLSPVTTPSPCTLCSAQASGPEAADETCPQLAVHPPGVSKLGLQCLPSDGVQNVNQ
Description: as §1
CEM-7A cells (2 × 10^6) were suspended in 1 mL HBSS and the assay was initiated by addition of 25 μL 200 μM [^3H]-l-LV; 5,000 pmol (i.e., 5 μM final concentration). Incubations proceeded for 2 min at 37°C in the absence and presence of increasing amounts of unlabelled LV/antifolate drug. Blanks consisted of a separate incubation at 4°C or incubation with 100-fold molar excess of unlabelled l-LV. [^3H]-l-LV influx was terminated by adding 9 mL ice-cold HBSS, centrifugation and an additional wash of the cells with 10 mL ice-cold buffer. Cell pellets were then assessed for radioactivity. Relative affinities for RFC are expressed as the concentration of unlabelled drug necessary to inhibit [^3H]-l-LV uptake by 50%.

Compound: Nc1nc2c(c(=O)[nH]1)N(C=O)C(CNc1ccc(C(=O)N[C@@H](CCC(=O)O)C(=O)O)cc1)CN2 (mixture of isomers) [dl-LV]
- pIC50 (human PCFT): 5.35
- Enhancement of the effect of 5FU by dl-LV [1]: about 2 fold
- 50% [3H]-FA displacement, fold lower concentration than l-LV (folate receptor α (FRα)): 2 fold
- Relative affinity for FRα (folate receptor α (FRα); 100 pmol [3H]-FA, inverse ratio of amount of drug displacing 50% of [3H]-FA, FA set to 1): 0.041
- pIC50 [2]: 5.14
